Measurements from US12383533B2 (Frost Biologic, Inc., priority 2014, dated 2025).

Columns and labels:
Assay type in all cases: cell-based
A2780 cells = assay: Cell Viability Assay (ATPlite 1step), A2780; conditions: Homo sapiens, 72 hours; for percent inhibition of cell viability at 4 µM: A2780, 4 uM compound, read-out: Cell Viability % inhibition A2780 (4 uM Cpd); for percent inhibition of cell viability at 20 µM: A2780, 20 uM compound, read-out: Cell Viability % inhibition A2780 (20 uM Cpd)
Protocol: (§1) Cell Viability Assay Protocol
(§2) Cells were trypsinized, counted, and re-seeded into a 384-well tissue culture plate at 1000 cells per well in […] media. Cells were incubated at 37° C. in an atmosphere of 5% CO2 for 24 hours. Experimental compounds, initially dissolved in DMSO and diluted further in media were added to the wells and incubated for 72 hours. Cell viability was measured using the ATPlite 1step Luminescence Detection Assay system (Perkin Elmer) as described in the Assay kit instructions.
(§3) Cell Culture Lines and Media: (1) A2780 cells were cultured in RPMI media with 10% FBS and 1% antibiotics. Cells were typically split every 3-5 days at a 1:10 dilution; (2) PC3 cells were cultured in RPMI media with 10% FBS and 1% antibiotics. Cells were typically split every 3-5 days at a 1:4 dilution; (3) MCF-7 cells were grown in K-12F media with 10% FBS and 1% antibiotics. Cells were typically split every 3-5 days at a 1:10 dilution.

MCF-7 cells = assay: Cell Viability Assay (ATPlite 1step), MCF-7; conditions: Homo sapiens, MCF7, 72 hours; for percent inhibition of cell viability at 4 µM: MCF-7, 4 uM compound, read-out: Cell Viability % inhibition MCF-7 (4 uM Cpd); for percent inhibition of cell viability at 20 µM: MCF-7, 20 uM compound, read-out: Cell Viability % inhibition MCF-7 (20 uM Cpd)
Protocol: as §1, §2, §3

PC3 cells = assay: Cell Viability Assay (ATPlite 1step), PC3; conditions: Homo sapiens, PC-3, 72 hours; for percent inhibition of cell viability at 4 µM: PC3, 4 uM compound, read-out: Cell Viability % inhibition PC3 (4 uM Cpd); for percent inhibition of cell viability at 20 µM: PC3, 20 uM compound, read-out: Cell Viability % inhibition PC3 (20 uM Cpd)
Protocol: as §1, §2, §3

Compound: O=C(Nc1ccc(-c2ccco2)cn1)c1cncnc1 [Compound 20, N-[5-(furan-2-yl)pyridin-2-yl]pyrimidine-5-carboxamide]
- percent inhibition of cell viability at 4 µM (A2780 cells): 84%
- percent inhibition of cell viability at 20 µM (A2780 cells): 91.1%
- percent inhibition of cell viability at 4 µM (MCF-7 cells): 56.3%
- percent inhibition of cell viability at 20 µM (MCF-7 cells): 61.2%
- percent inhibition of cell viability at 4 µM (PC3 cells): 59.9%
- percent inhibition of cell viability at 20 µM (PC3 cells): 69.4%

Compound: Nc1ncc(C(=O)Nc2ccc(-c3ccccc3)cn2)cn1 [Compound 9, 2-amino-N-(5-phenylpyridin-2-yl)pyrimidine-5-carboxamide]
- percent inhibition of cell viability at 4 µM (A2780 cells): 92.5%
- percent inhibition of cell viability at 20 µM (A2780 cells): 90.6%
- percent inhibition of cell viability at 4 µM (MCF-7 cells): 70.9%
- percent inhibition of cell viability at 20 µM (MCF-7 cells): 75.5%
- percent inhibition of cell viability at 4 µM (PC3 cells): 70.7%
- percent inhibition of cell viability at 20 µM (PC3 cells): 76.7%

Compound: Cc1ncc(C(=O)Nc2ncc(-c3cccc(NC4CC4)c3)cc2F)cn1 [Compound 68, N-{5-[3-(cyclopropylamino)phenyl]-3-fluoropyridin-2-yl}-2-methylpyrimidine-5-carboxamide]
- percent inhibition of cell viability at 4 µM (A2780 cells): 87.1%
- percent inhibition of cell viability at 20 µM (A2780 cells): 89%
- percent inhibition of cell viability at 4 µM (MCF-7 cells): 54.3%
- percent inhibition of cell viability at 20 µM (MCF-7 cells): 59.3%
- percent inhibition of cell viability at 4 µM (PC3 cells): 58.4%
- percent inhibition of cell viability at 20 µM (PC3 cells): 64.4%

Compound: Cc1ncc(C(=O)Nc2ccc(-c3cc(Cl)cc(N4CCN(C)CC4)c3)c(C)n2)cn1 [Compound 48, N-{5-[3-chloro-5-(4-methylpiperazin-1-yl)phenyl]-6-methylpyridin-2-yl}-2-methylpyrimidine-5-carboxamide]
- percent inhibition of cell viability at 4 µM (A2780 cells): 79.2%
- percent inhibition of cell viability at 20 µM (A2780 cells): 88.8%
- percent inhibition of cell viability at 4 µM (MCF-7 cells): 36.5%
- percent inhibition of cell viability at 20 µM (MCF-7 cells): 47.8%
- percent inhibition of cell viability at 4 µM (PC3 cells): 72%
- percent inhibition of cell viability at 20 µM (PC3 cells): 67%

Compound: O=C(Nc1ccc(-c2cccs2)cn1)c1cccnc1 [Compound 11, N-[5-(thiophen-2-yl)pyridin-2-yl]pyridine-3-carboxamide]
- percent inhibition of cell viability at 4 µM (A2780 cells): 85%
- percent inhibition of cell viability at 20 µM (A2780 cells): 97.8%
- percent inhibition of cell viability at 4 µM (MCF-7 cells): 58.6%
- percent inhibition of cell viability at 20 µM (MCF-7 cells): 88.9%
- percent inhibition of cell viability at 4 µM (PC3 cells): 70%
- percent inhibition of cell viability at 20 µM (PC3 cells): 83.8%

Compound: Cc1ncc(C(=O)Nc2ccc(-c3ccccc3)cn2)cn1 [Compound 8, 2-methyl-N-(5-phenylpyridin-2-yl)pyrimidine-5-carboxamide]
- percent inhibition of cell viability at 4 µM (A2780 cells): 89.8%
- percent inhibition of cell viability at 20 µM (A2780 cells): 90.8%
- percent inhibition of cell viability at 4 µM (MCF-7 cells): 68.7%
- percent inhibition of cell viability at 20 µM (MCF-7 cells): 74.5%
- percent inhibition of cell viability at 4 µM (PC3 cells): 71.6%
- percent inhibition of cell viability at 20 µM (PC3 cells): 71.7%

Compound: O=C(Nc1ccc(-c2cccnc2)cn1)c1cncnc1 [Compound 14, N-(3,3′-bipyridin-6-yl)pyrimidine-5-carboxamide]
- percent inhibition of cell viability at 4 µM (A2780 cells): 51.2%
- percent inhibition of cell viability at 20 µM (A2780 cells): 71.4%
- percent inhibition of cell viability at 4 µM (MCF-7 cells): 19.1%
- percent inhibition of cell viability at 20 µM (MCF-7 cells): 30.3%
- percent inhibition of cell viability at 4 µM (PC3 cells): 23.9%
- percent inhibition of cell viability at 20 µM (PC3 cells): 43.3%

Compound: Cc1ncc(C(=O)Nc2ccc(-c3cc(NC4CC4)cc(N4CCN(C)CC4)c3)cn2)cn1 [Compound 51, N-{5-[3-cycopropylamino-5-(4-methylpiperazin-1-yl)phenyl]pyridin-2-yl}-2-methylpyrimidine-5-carboxamide]
- percent inhibition of cell viability at 4 µM (A2780 cells): 6.8%
- percent inhibition of cell viability at 20 µM (A2780 cells): 76%
- percent inhibition of cell viability at 4 µM (MCF-7 cells): 22.9%
- percent inhibition of cell viability at 20 µM (MCF-7 cells): 49.5%
- percent inhibition of cell viability at 4 µM (PC3 cells): 17.3%
- percent inhibition of cell viability at 20 µM (PC3 cells): 65.7%

Compound: Cc1ncc(C(=O)Nc2ccc(-c3cc(N4CCN(C)CC4)cc(S(=O)(=O)C4CC4)c3)c(C)n2)cn1 [Compound 50, N-{5-[3-cyclopropylsulfonyl-5-(4-methylpiperazin-1-yl)phenyl]-6-methylpyridin-2-yl}-2-methylpyrimidine-5-carboxamide]
- percent inhibition of cell viability at 4 µM (A2780 cells): 7.3%
- percent inhibition of cell viability at 20 µM (A2780 cells): 62.6%
- percent inhibition of cell viability at 4 µM (MCF-7 cells): 10%
- percent inhibition of cell viability at 20 µM (MCF-7 cells): 40.7%
- percent inhibition of cell viability at 4 µM (PC3 cells): 39.2%
- percent inhibition of cell viability at 20 µM (PC3 cells): 54.7%

Compound: O=C(Nc1ccc(-c2ccccn2)cn1)c1cncnc1 [Compound 15, N-(3,2′-bipyridin-6-yl)pyrimidine-5-carboxamide]
- percent inhibition of cell viability at 4 µM (A2780 cells): 68.8%
- percent inhibition of cell viability at 20 µM (A2780 cells): 73.4%
- percent inhibition of cell viability at 4 µM (MCF-7 cells): 34.5%
- percent inhibition of cell viability at 20 µM (MCF-7 cells): 25.6%
- percent inhibition of cell viability at 4 µM (PC3 cells): 40.8%
- percent inhibition of cell viability at 20 µM (PC3 cells): 48.2%

Compound: O=C(Nc1ccc(-c2ccccc2)cn1)c1cccnc1 [Compound 10, N-(5-phenylpyridin-2-yl)pyridine-3-carboxamide]
- percent inhibition of cell viability at 4 µM (A2780 cells): 92.7%
- percent inhibition of cell viability at 20 µM (A2780 cells): 95.2%
- percent inhibition of cell viability at 4 µM (MCF-7 cells): 61.4%
- percent inhibition of cell viability at 20 µM (MCF-7 cells): 86.4%
- percent inhibition of cell viability at 4 µM (PC3 cells): 71.8%
- percent inhibition of cell viability at 20 µM (PC3 cells): 87.3%

Compound: Cc1ncc(C(=O)Nc2ccc(-c3cc(Cl)cc(N4CCN(C)CC4)c3)cn2)cn1 [Compound 47, N-{5-[3-chloro-5-(4-methylpiperazin-1-yl)phenyl]pyridin-2-yl}-2-methylpyrimidine-5-carboxamide]
- percent inhibition of cell viability at 4 µM (A2780 cells): 88.7%
- percent inhibition of cell viability at 20 µM (A2780 cells): 95.5%
- percent inhibition of cell viability at 4 µM (MCF-7 cells): 40.6%
- percent inhibition of cell viability at 20 µM (MCF-7 cells): 64.6%
- percent inhibition of cell viability at 4 µM (PC3 cells): 63.2%
- percent inhibition of cell viability at 20 µM (PC3 cells): 78.6%

Compound: O=C(Nc1ccc(-c2ccoc2)cn1)c1cncnc1 [Compound 19, N-[5-(furan-3-yl)pyridin-2-yl]pyrimidine-5-carboxamide]
- percent inhibition of cell viability at 4 µM (A2780 cells): 83.2%
- percent inhibition of cell viability at 20 µM (A2780 cells): 91.8%
- percent inhibition of cell viability at 4 µM (MCF-7 cells): 56.4%
- percent inhibition of cell viability at 20 µM (MCF-7 cells): 69.6%
- percent inhibition of cell viability at 4 µM (PC3 cells): 62.2%
- percent inhibition of cell viability at 20 µM (PC3 cells): 75.2%

Compound: COc1ncc(C(=O)Nc2ccc(-c3cccc(OC4CC4)c3)cn2)cn1 [Compound 57, N-{5-[3-(cyclopropyloxy)phenyl]pyridin-2-yl}-2-methoxypyrimidine-5-carboxamide]
- percent inhibition of cell viability at 4 µM (A2780 cells): 88.3%
- percent inhibition of cell viability at 20 µM (A2780 cells): 89.8%
- percent inhibition of cell viability at 4 µM (PC3 cells): 85.1%
- percent inhibition of cell viability at 20 µM (PC3 cells): 89%

Compound: O=C(Nc1ccc(-c2cccc(-c3ccccc3)c2)cn1)c1cncnc1 [Compound 40, N-[5-(biphenyl-3-yl)pyridin-2-yl]pyrimidine-5-carboxamide]
- percent inhibition of cell viability at 4 µM (A2780 cells): 61%
- percent inhibition of cell viability at 20 µM (A2780 cells): 72%
- percent inhibition of cell viability at 4 µM (PC3 cells): 48.3%
- percent inhibition of cell viability at 20 µM (PC3 cells): 52.5%

Compound: CN1CCN(c2cccc(-c3ccc(NC(=O)c4cccnc4)nc3)c2)CC1 [Compound 36, N-{5-[3-(4-methylpiperazin-1-yl)phenyl]pyridin-2-yl}pyridine-3-carboxamide]
- percent inhibition of cell viability at 4 µM (A2780 cells): 51.3%
- percent inhibition of cell viability at 20 µM (A2780 cells): 55.5%
- percent inhibition of cell viability at 4 µM (PC3 cells): 24.3%
- percent inhibition of cell viability at 20 µM (PC3 cells): 42.5%

Compound: Cc1ccc(C(=O)Nc2ccc(-c3cccc(C4CC4)c3)cn2)cn1 [Compound 25, N-[5-(3-cyclopropylphenyl)pyridin-2-yl]-6-methylpyridine-3-carboxamide]
- percent inhibition of cell viability at 4 µM (A2780 cells): 70.6%
- percent inhibition of cell viability at 20 µM (A2780 cells): 81.1%
- percent inhibition of cell viability at 4 µM (PC3 cells): 50.3%
- percent inhibition of cell viability at 20 µM (PC3 cells): 63.4%

Compound: Cc1ccc(C(=O)Nc2ccc(-c3cccc(NC4CC4)c3)cn2)cn1 [Compound 33, N-{5-[3-(cyclopropylamino)phenyl]pyridin-2-yl}-6-methylpyridine-3-carboxamide]
- percent inhibition of cell viability at 4 µM (A2780 cells): 69.5%
- percent inhibition of cell viability at 20 µM (A2780 cells): 74.8%
- percent inhibition of cell viability at 4 µM (PC3 cells): 56.1%
- percent inhibition of cell viability at 20 µM (PC3 cells): 54.9%

Compound: Cc1ncc(C(=O)Nc2ccc(-c3cc(O)cc(C4CC4)c3)cn2)cn1 [Compound 65, N-[5-(3-cyclopropyl-5-hydroxyphenyl)pyridin-2-yl]-2-methylpyrimidine-5-carboxamide]
- percent inhibition of cell viability at 4 µM (A2780 cells): 85.9%
- percent inhibition of cell viability at 20 µM (A2780 cells): 89.8%
- percent inhibition of cell viability at 4 µM (PC3 cells): 80.5%
- percent inhibition of cell viability at 20 µM (PC3 cells): 82.2%

Compound: Cc1ncc(C(=O)Nc2ccc(-c3cccc(N4CCN(C)CC4)c3)cn2)cn1 [Compound 35, N-{5-[3-(4-methylpiperazin-1-yl)phenyl]pyridin-2-yl}-2-methylpyrimidine-5-carboxamide]
- percent inhibition of cell viability at 4 µM (A2780 cells): 54.6%
- percent inhibition of cell viability at 20 µM (A2780 cells): 75.9%
- percent inhibition of cell viability at 4 µM (PC3 cells): 39.6%
- percent inhibition of cell viability at 20 µM (PC3 cells): 58.8%

Compound: COc1ccc(Cl)cc1-c1ccc(NC(=O)c2cncnc2)nc1 [Compound 21, N-[5-(5-chloro-2-methoxyphenyl)pyridin-2-yl]pyrimidine-5-carboxamide]
- percent inhibition of cell viability at 4 µM (A2780 cells): 70.4%
- percent inhibition of cell viability at 20 µM (A2780 cells): 62.4%
- percent inhibition of cell viability at 4 µM (PC3 cells): 22.8%
- percent inhibition of cell viability at 20 µM (PC3 cells): 15.3%
